Source: article PMC8325362, “Drugs repurposed for COVID-19 by virtual screening of 6,218 drugs and cell-based assay” (Proceedings of the National Academy of Sciences of the …, 2021)
Read-outs that look alike come from different tables or passages of the source.

What was measured:
RdRp [1] = tested on: RdRp; design: method as in ref 28 (a number printed in a supplementary file, which may have a reference list of its own: not looked up in the article's list); conditions: PDB 4WTG; read-out: Binding affinity to RdRp (IC50); cited from earlier work
[2] = read-out: Approx. Cmax (maximum serum concentration); rat, oral; cited from earlier work
SARS-CoV-2 [3] = experiment: microbe, parasite or virus in culture; type: cell-based; conditions: Severe acute respiratory syndrome coronavirus 2, Calu-3, 24 h, Calu-3 cells, MOI 0.5, 24 h
SARS-CoV-2 [4] = experiment: microbe, parasite or virus in culture; conditions: Severe acute respiratory syndrome coronavirus 2, Vero, 24 h, read-out: SARS-CoV-2 IC50 in Vero cells
[5] = Cytotoxicity (CC50) in Calu-3 cells; conditions: human
[6] = Cytotoxicity (CC50) in Vero cells; conditions: African green monkey
M^pro = M^pro (Severe acute respiratory syndrome coronavirus 2, UniProt P0DTD1); type: biochemical; conditions: FRET assay, 0.1 to 50 μM
SARS-CoV-2 RdRp = SARS-CoV-2 RdRp (Severe acute respiratory syndrome coronavirus 2, UniProt P0DTD1); experiment: RdRp enzyme assay kit; type: biochemical; design: dose or concentration left out as unconfirmed; conditions: positive control, even at high concentrations
SARS-CoV-2 [7] = experiment: in vitro; conditions: African green monkey
in vitro [8] = conditions: human
SARS-CoV-2 [9] = conditions: assay validation with reference drugs
in vitro [10] = conditions: African green monkey
[11] = Checkerboard drug combination assay, cell viability of Vero cells; conditions: African green monkey, Vero cells (ATCC CCL-81), Relative cell viability (%); for viability at 24 h, 0.63 μM: Remdesivir 0.63 μM; for viability at 24 h, 1.26 μM: Remdesivir 1.26 μM; for viability at 24 h, 2.52 μM: Remdesivir 2.52 μM; for viability at 24 h, 5.05 μM: Remdesivir 5.05 μM; for viability at 24 h, 10.09 μM: Remdesivir 10.09 μM; for viability at 24 h, 20.18 μM: Remdesivir 20.18 μM; for viability at 24 h, 40.36 μM: Remdesivir 40.36 μM
[12] = read-out: Approx. Cmax (maximum serum concentration); human, intravenous injection; cited from earlier work
SARS-CoV-2 [13] = experiment: Checkerboard drug combination assay, SARS-CoV-2 inhibition in Vero cells; type: cell-based; conditions: Severe acute respiratory syndrome coronavirus 2, Vero, read-out: Relative viral inhibition (%); for inhibition at 0.63 µM: Remdesivir 0.63 μM; for inhibition at 1.26 µM: Remdesivir 1.26 μM; for inhibition at 2.52 µM: Remdesivir 2.52 μM; for inhibition at 5.05 µM: Remdesivir 5.05 μM; for inhibition at 10.09 µM: Remdesivir 10.09 μM; for inhibition at 20.18 µM: Remdesivir 20.18 μM; for inhibition at 40.36 µM: Remdesivir 40.36 μM
COVID-19 = conditions: cited from earlier work
RdRp [14] = tested on: RdRp; design: method as in ref 29 (a number printed in a supplementary file, which may have a reference list of its own: not looked up in the article's list); conditions: PDB 1T05; read-out: Binding affinity to RdRp (IC50); cited from earlier work
Mpro = conditions: read-out: Binding affinity to Mpro (IC50); PDB 6W63; cited from earlier work

**Q.** Which IC50 (RdRp [1]) does the source give for `CC(C)OC(=O)[C@H](C)N[P@](=O)(OC[C@H]1O[C@@H](n2ccc(=O)[nH]c2=O)[C@](C)(F)[C@@H]1O)Oc1ccccc1` [6GS (sofosbuvir)] here?
**A.** 0.064 µM

**Q.** What does the source list for `Cc1cc(O)c2c(c1)C(=O)c1cc(O)cc(O)c1C2=O` [Emodin]?
**A.** Cmax [2]: ~0.078 µM; IC50 (SARS-CoV-2 [3]): 27.9 µM; IC50 (SARS-CoV-2 [4]): 31.4 µM; CC50 at 24 h [5]: > 50 µM; CC50 at 24 h [6]: > 50 µM; inhibitory activity against M^pro (M^pro): showed inhibitory activities

**Q.** With `N#C[C@@]1(c2ccc3c(N)ncnn23)O[C@H](COP(=O)(O)OP(=O)(O)OP(=O)(O)O)[C@@H](O)[C@H]1O` [RDV-TP, remdesivir triphosphate] as the molecule, how does the “activity in RdRp assay” value (SARS-CoV-2 RdRp) read?
**A.** did not show activity

**Q.** Which IC50 (SARS-CoV-2 [3]) does the source give for `CCC(CC)COC(=O)[C@H](C)N[P@](=O)(OC[C@H]1O[C@@](C#N)(c2ccc3c(N)ncnn23)[C@H](O)[C@@H]1O)Oc1ccccc1` [Remdesivir] here?
**A.** 2.49 µM

**Q.** And the selectivity ratio (SARS-CoV-2 [7])?
**A.** 4.96

**Q.** And the CC50 (in vitro [8])?
**A.** > 50 µM

**Q.** What about the IC50 (SARS-CoV-2 [4]) of the same molecule?
**A.** 10.1 µM

**Q.** What about the “antiviral activity against SARS-CoV-2 in Vero cells” value (SARS-CoV-2 [9]) of the same molecule?
**A.** showed antiviral activity

**Q.** What about the CC50 (in vitro [10]) of the same molecule?
**A.** > 50 µM

**Q.** And the viability at 24 h, 0.63 μM ([11]; Fig. 4B, Omipalisib 0.00 μM)?
**A.** 86%

**Q.** What about the viability at 24 h, 1.26 μM ([11]; Fig. 4B, Omipalisib 0.00 μM) of the same molecule?
**A.** 87%

**Q.** What about the viability at 24 h, 2.52 μM ([11]; Fig. 4B, Omipalisib 0.00 μM) of the same molecule?
**A.** 87%

**Q.** What about the viability at 24 h, 5.05 μM ([11]; Fig. 4B, Omipalisib 0.00 μM) of the same molecule?
**A.** 91%

**Q.** What about the viability at 24 h, 10.09 μM ([11]; Fig. 4B, Omipalisib 0.00 μM) of the same molecule?
**A.** 92%

**Q.** What about the viability at 24 h, 20.18 μM ([11]; Fig. 4B, Omipalisib 0.00 μM) of the same molecule?
**A.** 93%

**Q.** What about the viability at 24 h, 40.36 μM ([11]; Fig. 4B, Omipalisib 0.00 μM) of the same molecule?
**A.** 93%

**Q.** And the viability at 24 h, 0.63 μM ([11]; Fig. 4H, Tipifarnib 0.00 μM)?
**A.** 88%

**Q.** And the viability at 24 h, 1.26 μM ([11]; Fig. 4H, Tipifarnib 0.00 μM)?
**A.** 90%

**Q.** What about the viability at 24 h, 2.52 μM ([11]; Fig. 4H, Tipifarnib 0.00 μM) of the same molecule?
**A.** 94%

**Q.** And the viability at 24 h, 5.05 μM ([11]; Fig. 4H, Tipifarnib 0.00 μM)?
**A.** 97%

**Q.** And the viability at 24 h, 10.09 μM ([11]; Fig. 4H, Tipifarnib 0.00 μM)?
**A.** 95%

**Q.** What about the viability at 24 h, 20.18 μM ([11]; Fig. 4H, Tipifarnib 0.00 μM) of the same molecule?
**A.** 98%

**Q.** What about the viability at 24 h, 40.36 μM ([11]; Fig. 4H, Tipifarnib 0.00 μM) of the same molecule?
**A.** 94%

**Q.** And the Cmax [12]?
**A.** ~9 µM

**Q.** What about the inhibition at 0.63 µM (SARS-CoV-2 [13]; Fig. 4A, Omipalisib 0.00 μM) of the same molecule?
**A.** 4%

**Q.** And the inhibition at 1.26 µM (SARS-CoV-2 [13]; Fig. 4A, Omipalisib 0.00 μM)?
**A.** 4%

**Q.** And the inhibition at 2.52 µM (SARS-CoV-2 [13]; Fig. 4A, Omipalisib 0.00 μM)?
**A.** 1%

**Q.** And the inhibition at 5.05 µM (SARS-CoV-2 [13]; Fig. 4A, Omipalisib 0.00 μM)?
**A.** 20%

**Q.** And the inhibition at 10.09 µM (SARS-CoV-2 [13]; Fig. 4A, Omipalisib 0.00 μM)?
**A.** 55%

**Q.** What about the inhibition at 20.18 µM (SARS-CoV-2 [13]; Fig. 4A, Omipalisib 0.00 μM) of the same molecule?
**A.** 81%

**Q.** And the inhibition at 40.36 µM (SARS-CoV-2 [13]; Fig. 4A, Omipalisib 0.00 μM)?
**A.** 89%

**Q.** And the inhibition at 0.63 µM (SARS-CoV-2 [13]; Fig. 4G, Tipifarnib 0.00 μM)?
**A.** 1%

**Q.** And the inhibition at 1.26 µM (SARS-CoV-2 [13]; Fig. 4G, Tipifarnib 0.00 μM)?
**A.** 3%

**Q.** What about the inhibition at 2.52 µM (SARS-CoV-2 [13]; Fig. 4G, Tipifarnib 0.00 μM) of the same molecule?
**A.** 16%

**Q.** What about the inhibition at 5.05 µM (SARS-CoV-2 [13]; Fig. 4G, Tipifarnib 0.00 μM) of the same molecule?
**A.** 54%

**Q.** What about the inhibition at 10.09 µM (SARS-CoV-2 [13]; Fig. 4G, Tipifarnib 0.00 μM) of the same molecule?
**A.** 91%

**Q.** What about the inhibition at 20.18 µM (SARS-CoV-2 [13]; Fig. 4G, Tipifarnib 0.00 μM) of the same molecule?
**A.** 97%

**Q.** And the inhibition at 40.36 µM (SARS-CoV-2 [13]; Fig. 4G, Tipifarnib 0.00 μM)?
**A.** 98%

**Q.** And the “patients with clinical improvement” value (COVID-19; 36 out of 53 patients with severe illness)?
**A.** 68%

**Q.** What about the average recovery time (COVID-19; COVID-19 patients, vs 15 d placebo) of the same molecule?
**A.** 11 days

**Q.** And the clinical benefits (COVID-19; severe COVID-19 patients)?
**A.** no statistically significant clinical benefits

**Q.** For `C[C@H](Cn1cnc2c(N)ncnc21)OCP(=O)(O)O` [TNV (tenofovir)], which IC50 (RdRp [14]) is on record?
**A.** 1.3 µM

**Q.** Which IC50 (Mpro) does the source give for `CC(C)(C)c1ccc(N(C(=O)c2cnc[nH]2)[C@@H](C(=O)NC2CCCCC2)c2cccnc2)cc1` [X77] here?
**A.** 2.3 µM
